According to patent US9884868B2, “TGF-beta inhibitors” (Rigel Pharmaceuticals, Inc., priority 2015, dated 2018):

Target: HIS-TGF-βR1 T204D (Homo sapiens (Human), UniProt P36897, T204D)
Test: HTRF probe displacement assay with HIS-TGF-βR1 T204D
Conditions: read-out: TGFbr1 IC50; HTRF probe displacement, 1 nM HIS-TGF-βR1 T204D, 1 hour at room temperature

HIS-TGF-βR1 T204D, sequence (P36897 34-503 T204D): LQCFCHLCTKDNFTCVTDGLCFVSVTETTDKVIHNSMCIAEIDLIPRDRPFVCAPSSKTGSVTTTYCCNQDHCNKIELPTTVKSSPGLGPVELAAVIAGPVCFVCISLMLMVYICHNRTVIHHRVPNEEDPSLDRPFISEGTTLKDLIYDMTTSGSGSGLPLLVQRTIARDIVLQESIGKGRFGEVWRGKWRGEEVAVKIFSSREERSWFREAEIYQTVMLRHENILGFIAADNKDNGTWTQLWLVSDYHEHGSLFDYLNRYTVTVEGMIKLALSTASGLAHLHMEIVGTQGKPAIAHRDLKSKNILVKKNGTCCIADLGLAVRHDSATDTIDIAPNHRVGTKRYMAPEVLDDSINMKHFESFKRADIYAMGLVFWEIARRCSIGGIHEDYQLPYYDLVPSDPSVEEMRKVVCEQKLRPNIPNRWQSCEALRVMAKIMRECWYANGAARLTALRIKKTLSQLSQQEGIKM

Structure (SMILES) | IC50 [nM]
N#Cc1cnc2ccc(-c3c(-c4ccc(F)cc4)ncn3C3CC(F)(F)C3)cn12 [66′, 6-(1-(3,3-difluorocyclobutyl)-4-(4-fluorophenyl)-1H-imidazol-5-yl)imidazo[1,2-a]pyridine-3-carbonitrile] | 418
C[C@@H](O)Cn1cnc(-c2ccc(F)cc2)c1-c1ccc2ncc(C#N)n2c1 [68′, (R)-6-(4-(4-fluorophenyl)-1-(2-hydroxypropyl)-1H-imidazol-5-yl)imidazo[1,2-a]pyridine-3-carbonitrile] | 301
CC(O)CCn1cnc(-c2ccc(F)cc2)c1-c1ccc2ncc(C#N)n2c1 (centres unmarked) [69′, 6-(4-(4-fluorophenyl)-1-(3-hydroxybutyl)-1H-imidazol-5-yl)imidazo[1,2-a]pyridine-3-carbonitrile] | 151
CCC(O)Cn1cnc(-c2ccc(F)cc2)c1-c1ccc2ncc(C#N)n2c1 (centres unmarked) [70′, 6-(4-(4-fluorophenyl)-1-(2-hydroxybutyl)-1H-imidazol-5-yl)imidazo[1,2-a]pyridine-3-carbonitrile] | 123
N#Cc1cnc2ccc(-c3c(-c4ccc(F)cc4)ncn3C[C@@H](O)CO)cn12 [71′, (R)-6-(1-(2,3-dihydroxypropyl)-4-(4-fluorophenyl)-1H-imidazol-5-yl)imidazo[1,2-a]pyridine-3-carbonitrile] | 170
CCC(CC)n1cnc(-c2ccc(F)cc2)c1-c1ccc2ncc(C#N)n2c1 [74′, 6-(4-(4-fluorophenyl)-1-(pentan-3-yl)-1H-imidazol-5-yl)imidazo[1,2-c]pyridine-3-carbonitrile] | 152
N#Cc1cnc2ccc(-c3c(-c4ccc(F)cc4)ncn3CCCO)cn12 [75′, 6-(4-(4-fluorophenyl)-1-(3-hydroxypropyl)-1H-imidazol-5-yl)imidazo[1,2-a]pyridine-3-carbonitrile] | 200
CC(C)C(C)n1cnc(-c2ccc(F)cc2)c1-c1ccc2ncc(C#N)n2c1 (centres unmarked) [76′, 6-(4-(4-fluorophenyl)-1-(3-methylbutan-2-yl)-1H-imidazol-5-yl)imidazo[1,2-a]pyridine-3-carbonitrile] | 999
N#Cc1cnc2ccc(-c3c(-c4ccc(F)cc4)ncn3C3COC3)cn12 [78′, 6-(4-(4-fluorophenyl)-1-(oxetan-3-yl)-1H-imidazol-5-yl)imidazo[1,2-a]pyridine-3-carbonitrile] | 568
CCC(CO)n1cnc(-c2ccc(F)cc2)c1-c1ccc2ncc(C#N)n2c1 (centres unmarked) [83′, 6-(4-(4-fluorophenyl)-1-(1-hydroxybutan-2-yl)-1H-imidazol-5-yl)imidazo[1,2-a]pyridine-3-carbonitrile] | 189
N#Cc1cnc2ccc(-c3c(-c4ccc(F)cc4)ncn3CCCF)cn12 [84′, 6-(4-(4-fluorophenyl)-1-(3-fluoropropyl)-1H-imidazol-5-yl)imidazo[1,2-a]pyridine-3-carbonitrile] | 121
N#Cc1cnc2ccc(-c3c(-c4ccc(F)cc4)ncn3C(CO)CO)cn12 [85′, 6-(1-(1,3-dihydroxypropan-2-yl)-4-(4-fluorophenyl)-1H-imidazol-5-yl)imidazo[1,2-a]pyridine-3-carbonitrile] | 144
N#Cc1cnc2ccc(-c3c(-c4ccc(F)cc4)ncn3C3CCCC3)cn12 [86′, 6-(1-cyclopentyl-4-(4-fluorophenyl)-1H-imidazol-5-yl)imidazo[1,2-a]pyridine-3-carbonitrile] | 94.7
C[C@H](O)Cn1cnc(-c2ccc(F)cc2)c1-c1ccc2ncc(C#N)n2c1 [89′, (S)-6-(4-(4-fluorophenyl)-1-(2-hydroxypropyl)-1H-imidazol-5-yl)imidazo[1,2-a]pyridine-3-carbonitrile] | 127
CC(C)(O)Cn1cnc(-c2ccc(F)cc2)c1-c1ccc2ncc(C#N)n2c1 [90′, 6-(4-(4-fluorophenyl)-1-(2-hydroxy-2-methylpropyl)-1H-imidazol-5-yl)imidazo[1,2-a]pyridine-3-carbonitrile] | 107
N#Cc1cnc2ccc(-c3c(-c4ccc(F)cc4)ncn3C[C@H](O)CO)cn12 [92′, (S)-6-(1-(2,3-dihydroxypropyl)-4-(4-fluorophenyl)-1H-imidazol-5-yl)imidazo[1,2-a]pyridine-3-carbonitrile] | 266

Now those with a lower IC50, led by results:

IC50 [nM] | Structure (SMILES)
2.1 | N#Cc1cnc2ccc(-c3c(-c4ccc(F)c(Cl)c4)ncn3C3CC(F)(F)C3)nn12 [53′, 6-(4-(3-chloro-4-fluorophenyl)-1-(3,3-difluorocyclobutyl)-1H-imidazol-5-yl)imidazo[1,2-b]pyridazine-3-carbonitrile]
0.8 | N#Cc1cnc2ccc(-c3c(-c4ccc(F)c(Cl)c4)ncn3CCCF)nn12 [54′, 6-(4-(3-chloro-4-fluorophenyl)-1-(3-fluoropropyl)-1H-imidazol-5-yl)imidazo[1,2-b]pyridazine-3-carbonitrile]
0.8 | CC(F)(F)Cn1cnc(-c2ccc(F)c(Cl)c2)c1-c1ccc2ncc(C#N)n2n1 [56′, 6-(4-(3-chloro-4-fluorophenyl)-1-(2,2-difluoropropyl)-1H-imidazol-5-yl)imidazo[1,2-b]pyridazine-3-carbonitrile]
1.5 | CC(C)(F)Cn1cnc(-c2ccc(F)c(Cl)c2)c1-c1ccc2ncc(C#N)n2n1 [57′, 6-(4-(3-chloro-4-fluorophenyl)-1-(2-fluoro-2-methylpropyl)-1H-imidazol-5-yl)imidazo[1,2-b]pyridazine-3-carbonitrile]
0.8 | N#Cc1cnc2ccc(-c3c(-c4ccc(F)c(Cl)c4)ncn3C3CCC3)nn12 [58′, 6-(4-(3-chloro-4-fluorophenyl)-1-cyclobutyl-1H-imidazol-5-yl)imidazo[1,2-b]pyridazine-3-carbonitrile]
1.1 | N#Cc1cnc2ccc(-c3c(-c4ccc(F)c(Cl)c4)ncn3C34CC(C3)C4)nn12 [59′, 6-(1-(bicyclo[1.1.1]pentan-1-yl)-4-(3-chloro-4-fluorophenyl)-1H-imidazol-5-yl)imidazo[1,2-b]pyridazine-3-carbonitrile]
0.9 | N#Cc1cnc2ccc(-c3c(-c4ccc(F)c(Cl)c4)ncn3CCCl)nn12 [60′, 6-(4-(3-chloro-4-fluorophenyl)-1-(2-chloroethyl)-1H-imidazol-5-yl)imidazo[1,2-b]pyridazine-3-carbonitrile]
0.8 | N#Cc1cnc2ccc(-c3c(-c4ccc(F)c(Cl)c4)ncn3CCC3CC3)nn12 [61′, 6-(4-(3-chloro-4-fluorophenyl)-1-(2-cyclopropylethyl)-1H-imidazol-5-yl)imidazo[1,2-b]pyridazine-3-carbonitrile]
1.6 | CC1(Cn2cnc(-c3ccc(F)c(Cl)c3)c2-c2ccc3ncc(C#N)n3n2)CC1 [62′, 6-(4-(3-chloro-4-fluorophenyl)-1-((1-methylcyclopropyl)methyl)-1H-imidazol-5-yl)imidazo[1,2-b]pyridazine-3-carbonitrile]
0.9 | N#Cc1cnc2ccc(-c3c(-c4ccc(F)c(Cl)c4)ncn3[C@@H]3CCC(F)(F)C3)nn12 [63′, (R)-6-(4-(3-chloro-4-fluorophenyl)-1-(3,3-difluorocyclopentyl)-1H-imidazol-5-yl)imidazo[1,2-b]pyridazine-3-carbonitrile]
5.1 | N#Cc1cnc2ccc(-c3c(-c4ccc(F)c(Cl)c4)ncn3[C@H]3CCC(F)(F)C3)nn12 [64′, (S)-6-(4-(3-chloro-4-fluorophenyl)-1-(3,3-difluorocyclopentyl)-1H-imidazol-5-yl)imidazo[1,2-b]pyridazine-3-carbonitrile]
55.8 | CCC(C)n1cnc(-c2ccc(F)cc2)c1-c1ccc2ncc(C#N)n2c1 (centres unmarked) [67′, 6-(1-(sec-butyl)-4-(4-fluorophenyl)-1H-imidazol-5-yl)imidazo[1,2-a]pyridine-3-carbonitrile]
67.8 | N#Cc1cnc2ccc(-c3c(-c4ccc(F)cc4)ncn3CC3CCC3)cn12 [72′, 6-(1-(cyclobutylmethyl)-4-(4-fluorophenyl)-1H-imidazol-5-yl)imidazo[1,2-a]pyridine-3-carbonitrile]
36.2 | CCn1cnc(-c2ccc(F)cc2)c1-c1ccc2ncc(C#N)n2c1 [73′, 6-(1-ethyl-4-(4-fluorophenyl)-1H-imidazol-5-yl)imidazo[1,2-a]pyridine-3-carbonitrile]
19.8 | N#Cc1cnc2ccc(-c3c(-c4ccc(F)cc4)ncn3C3CC3)cn12 [77′, 6-(1-cyclopropyl-4-(4-fluorophenyl)-1H-imidazol-5-yl)imidazo[1,2-a]pyridine-3-carbonitrile]
55.3 | CC(C)n1cnc(-c2ccc(F)cc2)c1-c1ccc2ncc(C#N)n2c1 [79′, 6-(4-(4-fluorophenyl)-1-isopropyl-1H-imidazol-5-yl)imidazo[1,2-a]pyridine-3-carbonitrile]
31 | CC(CCO)n1cnc(-c2ccc(F)cc2)c1-c1ccc2ncc(C#N)n2c1 (centres unmarked) [80′, 6-(4-(4-fluorophenyl)-1-(4-hydroxybutan-2-yl)-1H-imidazol-5-yl)imidazo[1,2-a]pyridine-3-carbonitrile]
88.5 | CC(CO)n1cnc(-c2ccc(F)cc2)c1-c1ccc2ncc(C#N)n2c1 (centres unmarked) [81′, 6-(4-(4-fluorophenyl)-1-(1-hydroxypropan-2-yl)-1H-imidazol-5-yl)imidazo[1,2-a]pyridine-3-carbonitrile]
71.6 | CC(C)Cn1cnc(-c2ccc(F)cc2)c1-c1ccc2ncc(C#N)n2c1 [82′, 6-(4-(4-fluorophenyl)-1-isobutyl-1H-imidazol-5-yl)imidazo[1,2-a]pyridine-3-carbonitrile]
40.3 | CCCn1cnc(-c2ccc(F)cc2)c1-c1ccc2ncc(C#N)n2c1 [87′, 6-(4-(4-fluorophenyl)-1-propyl-1H-imidazol-5-yl)imidazo[1,2-a]pyridine-3-carbonitrile]
19.3 | CC(C1CC1)n1cnc(-c2ccc(F)cc2)c1-c1ccc2ncc(C#N)n2c1 (centres unmarked) [88′, 6-(1-(1-cyclopropylethyl)-4-(4-fluorophenyl)-1H-imidazol-5-yl)imidazo[1,2-a]pyridine-3-carbonitrile]
18.8 | CCOCCn1cnc(-c2ccc(F)cc2)c1-c1ccc2ncc(C#N)n2c1 [91′, 6-(1-(2-ethoxyethyl)-4-(4-fluorophenyl)-1H-imidazol-5-yl)imidazo[1,2-a]pyridine-3-carbonitrile]
